# Earlier results as cited in paper PMC7904743, “WIDOCK: a reactive docking protocol for virtual screening of covalent inhibitors” (Journal of Computer-Aided Molecular Design, 2021).
# Like-named read-outs stand apart in the source and are kept apart here.
# Tests used:
# [1] = thiol reactivity, cited from earlier work
# NUDT7 = settings: protein labeling at 200 μM; experimental actives if % labeling higher than 50%; cited from earlier work
# OTUB2 = settings: experimental actives if % labeling higher than 50%; cited from earlier work
# [2] = natural log of average rate constant k
# [3] = natural logarithm of average rate constant
SMILES,"ln(avg k) [1, 2]","ln(avg k) [1, 3]",NUDT7 % labeling (NUDT7),OTUB2 % labeling (OTUB2)
"Cc1cc(CNC(=O)CCl)ccc1F [PCM-0102305, Cc1cc(CNC(=O)CCl)ccc1F]",-16.230,-16.230,0%,59%
"O=C(CCl)N1CCN(C(=O)c2cccs2)CC1 [PCM-0102306, O=C(CCl)N1CCN(C(=O)c2cccs2)CC1]",-15.421,-15.421,0%,0%
"O=C(CCl)Nc1ccccc1C(=O)O [PCM-0102307, O=C(CCl)Nc1ccccc1C(=O)O]",-17.138,-17.138,0%,0%
"O=C(CCl)NC(=O)Nc1ccc(Br)cc1 [PCM-0102308, O=C(CCl)NC(=O)Nc1ccc(Br)cc1]",-16.949,-16.949,17%,10%
"CN1C(=O)c2ccc(NC(=O)CCl)cc2C1=O [PCM-0102309, CN1C(=O)c2ccc(NC(=O)CCl)cc2C1=O]",-15.418,-15.418,12%,19%
"CC(=O)NNC(=O)CCl [PCM-0102310, CC(=O)NNC(=O)CCl]",-16.812,-16.812,0%,18%
"O=C(CCl)Nc1cc2ccccc2cc1C(=O)O [PCM-0102311, O=C(CCl)Nc1cc2ccccc2cc1C(=O)O]",-15.248,-15.248,17%,10%
"O=C(CCl)Nc1ccccc1Br [PCM-0102312, O=C(CCl)Nc1ccccc1Br]",-16.261,-16.261,15%,0%
"O=C(CCl)N(C1CCCC1)C1CCS(=O)(=O)C1 (stereo not drawn) [PCM-0102313, O=C(CCl)N(C1CCCC1)C1CCS(=O)(=O)C1]",-15.397,-15.397,11%,0%
"NC(=O)c1ccsc1NC(=O)CCl [PCM-0102314, NC(=O)c1ccsc1NC(=O)CCl]",-15.717,-15.717,18%,0%
"CC1(C)C2CCC1(C)C(NC(=O)CCl)C2 (stereo not drawn) [PCM-0102315, CC1(C)C2CCC1(C)C(NC(=O)CCl)C2]",-16.417,-16.417,0%,0%
"O=C(CCl)Nc1ccc(Cl)c([N+](=O)[O-])c1 [PCM-0102316, O=C(CCl)Nc1ccc(Cl)c([N+](=O)[O-])c1]",-15.463,-15.463,28%,36%
"COc1cc2c(cc1OC)CN(C(=O)CCl)CC2 [PCM-0102317, COc1cc2c(cc1OC)CN(C(=O)CCl)CC2]",-14.822,-14.822,10%,14%
"Cc1ccc(NC(=O)CCl)cc1 [PCM-0102320, Cc1ccc(NC(=O)CCl)cc1]",-16.011,-16.011,0%,24%
"O=C(CCl)Nc1ccc(C(F)(F)F)cc1 [PCM-0102323, O=C(CCl)Nc1ccc(C(F)(F)F)cc1]",-15.637,-15.637,7%,17%
"COc1ccc2c(c1)CCCN2C(=O)CCl [PCM-0102325, COc1ccc2c(c1)CCCN2C(=O)CCl]",-15.257,-15.257,12%,0%
"O=C(CCl)N1CCN(S(=O)(=O)c2cccc(F)c2)CC1 [PCM-0102327, O=C(CCl)N1CCN(S(=O)(=O)c2cccc(F)c2)CC1]",-15.130,-15.130,13%,0%
"O=C(CCl)Nc1ccc(F)c(F)c1 [PCM-0102328, O=C(CCl)Nc1ccc(F)c(F)c1]",-15.726,-15.726,0%,31%
"COc1ccc2nc(NC(=O)CCl)sc2c1 [PCM-0102330, COc1ccc2nc(NC(=O)CCl)sc2c1]",-15.593,-15.593,100%,0%
"O=C(CCl)Nc1cc2c(cc1Cl)OCCCO2 [PCM-0102331, O=C(CCl)Nc1cc2c(cc1Cl)OCCCO2]",-16.178,-16.178,36%,26%
"CC1CCCC(NC(=O)NC(=O)CCl)C1C (stereo not drawn) [PCM-0102332, CC1CCCC(NC(=O)NC(=O)CCl)C1C]",-15.913,-15.913,0%,0%

SMILES,"ln(avg k) [1, 2]","ln(avg k) [1, 3]",NUDT7 % labeling (NUDT7),OTUB2 % labeling (OTUB2)
"O=C(CCl)NC(=O)Nc1ccc2c(c1)OCO2 [PCM-0102333, O=C(CCl)NC(=O)Nc1ccc2c(c1)OCO2]",-15.968,-15.968,29%,53%
"CC(NC(=O)CCl)c1ccc(Cl)cc1 (stereo not drawn) [PCM-0102334, CC(NC(=O)CCl)c1ccc(Cl)cc1]",-16.367,-16.367,0%,25%
"CS(=O)(=O)c1ccc(NC(=O)CCl)cc1 [PCM-0102335, CS(=O)(=O)c1ccc(NC(=O)CCl)cc1]",-15.005,-15.005,6%,30%
"O=C(CCl)Nc1ccnn1C1CCCC1 [PCM-0102336, O=C(CCl)Nc1ccnn1C1CCCC1]",-15.629,-15.629,0%,19%
"Cc1oc(NC(=O)CCl)c(C#N)c1C [PCM-0102337, Cc1oc(NC(=O)CCl)c(C#N)c1C]",-15.944,-15.944,0%,45%
"Cc1ccc(NC(=O)CCl)cc1C [PCM-0102339, Cc1ccc(NC(=O)CCl)cc1C]",-15.536,-15.536,18%,82%
"Cc1cccc(CN2CCN(C(=O)CCl)CC2)c1 [PCM-0102340, Cc1cccc(CN2CCN(C(=O)CCl)CC2)c1]",-15.593,-15.593,0%,17%
"N#CC(c1ccc(F)cc1)N1CCN(C(=O)CCl)CC1 (stereo not drawn) [PCM-0102341, N#CC(c1ccc(F)cc1)N1CCN(C(=O)CCl)CC1]",-14.949,-14.949,0%,0%
"CC(NC(=O)CCl)c1ccc2c(c1)OCCO2 (stereo not drawn) [PCM-0102342, CC(NC(=O)CCl)c1ccc2c(c1)OCCO2]",-16.412,-16.412,8%,57%
"O=C(CCl)N1CCN(S(=O)(=O)c2ccc(F)c(Cl)c2)CC1 [PCM-0102343, O=C(CCl)N1CCN(S(=O)(=O)c2ccc(F)c(Cl)c2)CC1]",-15.080,-15.080,12%,0%
"CN(Cc1ccc(Cl)cc1)C(=O)CCl [PCM-0102344, CN(Cc1ccc(Cl)cc1)C(=O)CCl]",-15.486,-15.486,34%,0%
"CN(C)C(=O)c1cccc(NC(=O)CCl)c1 [PCM-0102345, CN(C)C(=O)c1cccc(NC(=O)CCl)c1]",-15.488,-15.488,10%,0%
"O=C(CCl)N1CCN(CC(=O)N2CCCC2)CC1 [PCM-0102346, O=C(CCl)N1CCN(CC(=O)N2CCCC2)CC1]",-16.189,-16.189,0%,0%
"CC(C)(C)c1cc(NC(=O)CCl)on1 [PCM-0102348, CC(C)(C)c1cc(NC(=O)CCl)on1]",-15.607,-15.607,0%,0%
"CN(Cc1ccc(Cl)c(Cl)c1)C(=O)CCl [PCM-0102349, CN(Cc1ccc(Cl)c(Cl)c1)C(=O)CCl]",-15.496,-15.496,59%,0%
"CC(NC(=O)CCl)c1ccc2ccccc2c1 (stereo not drawn) [PCM-0102350, CC(NC(=O)CCl)c1ccc2ccccc2c1]",-16.423,-16.423,31%,47%
"Cc1cc(C)c(NC(=O)CCl)c(C)c1 [PCM-0102352, Cc1cc(C)c(NC(=O)CCl)c(C)c1]",-17.111,-17.111,0%,0%
"Cc1ccc(C)c(S(=O)(=O)N2CCN(C(=O)CCl)CC2)c1 [PCM-0102353, Cc1ccc(C)c(S(=O)(=O)N2CCN(C(=O)CCl)CC2)c1]",-15.325,-15.325,19%,6%
"Cc1ccc(Cl)cc1NC(=O)CCl [PCM-0102354, Cc1ccc(Cl)cc1NC(=O)CCl]",-16.394,-16.394,0%,0%
"CC(C)(C)c1ccc(C(=O)NNC(=O)CCl)cc1 [PCM-0102355, CC(C)(C)c1ccc(C(=O)NNC(=O)CCl)cc1]",-17.324,-17.324,0%,66%
"O=C(CCl)NCC1CCCO1 (stereo not drawn) [PCM-0102356, O=C(CCl)NCC1CCCO1]",-16.672,-16.672,0%,5%
